Results from patent US20230071840A1, “HETEROCYCLIC GLP-1 AGONISTS” (Gasherbrum Bio, Inc., priority 2020, published 2023).

biological target: GLP-1 Receptor (Homo sapiens, UniProt P43220); assay: GLP-1R agonist cAMP stimulation assay (HEK293/GLP1R/CRE-LUC cells, cAMP dynamic 2 kit); format: cell-based; details: HEK293/CRE-Luc cell line stably expressing the GLP-1 Receptor; 30 min incubation at 37° C.; read-out: GLP1R cAMP Stimulation DR: EC50
Procedure: Activation of GLP-1 receptor is known to stimulate cyclic AMP (cAMP) production in cells which indicates primary coupling to the Gas subunit of the G protein heterotrimeric complex.
To optimize functional activity directed toward Gas coupling, a HEK293/CRE-Luc cell line developed by HDB stably expressing the GLP-1 Receptor was used. […] Seal the plate and incubate at 37° C. with 5% CO2 for 30 min.
After incubation the cAMP assay signal was generated using cAMP dynamic 2 Kit (Cisbio). 5 μL cAMP-d2 working solution was added to each well, followed with 5 μL Anti-cAMP antibody-cryptate working solution added to each well using ThermoFisher Multidrop Combi. Incubate at room temperature for 1 hour protected from light.
% Activity=[…]×(mean RLU of test sample−mean RLU of vehicle control)/(mean RLU of MAX control−mean RLU of vehicle control))

Sequence of GLP-1 Receptor (P43220 24-463, species assumed): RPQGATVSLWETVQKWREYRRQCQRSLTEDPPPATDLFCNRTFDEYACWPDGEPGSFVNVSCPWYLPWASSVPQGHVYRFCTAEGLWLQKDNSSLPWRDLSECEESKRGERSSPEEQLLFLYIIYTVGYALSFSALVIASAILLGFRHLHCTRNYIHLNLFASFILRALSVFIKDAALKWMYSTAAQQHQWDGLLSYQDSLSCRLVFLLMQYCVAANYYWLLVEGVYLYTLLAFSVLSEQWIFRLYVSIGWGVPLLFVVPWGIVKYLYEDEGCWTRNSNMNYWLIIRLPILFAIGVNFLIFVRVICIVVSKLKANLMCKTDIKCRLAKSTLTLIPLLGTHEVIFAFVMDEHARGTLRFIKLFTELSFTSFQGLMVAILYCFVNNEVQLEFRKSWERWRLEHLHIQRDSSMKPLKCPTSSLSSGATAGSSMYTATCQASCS

| Structure (SMILES) | EC50 [nM] |
| --- | --- |
| O=C(O)c1ccc2nc(CN3CCC(Oc4cccc(Cc5ccc(Cl)cc5F)n4)C3)n(C[C@@H]3CCO3)c2n1 (stereo partly drawn) [Compound 130a, 2-{[3-({6-[(4-chloro-2-fluorophenyl)methyl]pyridin-2-yl}oxy)pyrrolidin-1-yl]methyl}-3-{[(2S)-oxetan-2-yl]methyl}-3H-imidazo[4,5-b]pyridine-5-carboxylic acid] | 53 |
| O=C(O)c1ccc2nc(CN3CCC(Oc4ccnc(Cc5ccc(Cl)cc5)c4)CC3)n(C[C@@H]3CCO3)c2n1 [Compound 159a, 2-{[4-({2-[(4-chlorophenyl)methyl]pyridin-4-yl}oxy)piperidin-1-yl]methyl}-3-{[(2S)-oxetan-2-yl]methyl}-3H-imidazo[4,5-b]pyridine-5-carboxylic acid] | 2.3 |
| O=C(O)c1ccc2nc(C[C@H]3CC[C@@H](Oc4ccnc(Cc5ccc(Cl)cc5F)n4)CC3)n(C[C@@H]3CCO3)c2n1 [Compound 175a, 3-{[(2S)-oxetan-2-yl]methyl}-2-{[cis-4-({2-[(4-chloro-2-fluorophenyl)methyl]pyrimidin-4-yl}oxy)cyclohexyl]methyl}-3H-imidazo[4,5-b]pyridine-5-carboxylic acid] | 230 |
| O=C(O)c1ccc2nc(CN3CCC(Oc4cc(Cl)cc(Cc5ccc(Cl)cc5)n4)CC3)n(C[C@@H]3CCO3)c2n1 [Compound 155a, 2-{[4-({4-chloro-6-[(4-chlorophenyl)methyl]pyridin-2-yl}oxy)piperidin-1-yl]methyl}-3-{[(2S)-oxetan-2-yl]methyl}-3H-imidazo[4,5-b]pyridine-5-carboxylic acid] | 3.8 |
| O=C(O)c1ccc2nc(CC3CCN(C(=O)c4cccc(Cc5ccc(Cl)cc5F)n4)CC3)n(C[C@@H]3CCO3)c2n1 [Compound 106a, (S)-2-((1-(6-(4-Chloro-2-fluorobenzyl)picolinoyl)piperidin-4-yl)methyl)-3-(oxetan-2-ylmethyl)-3H-imidazo[4,5-b]pyridine-5-carboxylic acid] | 463 |

Now those with a lower EC50, led by results:

| EC50 [nM] | Structure (SMILES) |
| --- | --- |
| 0.043 | O=C(O)c1ccc2nc(CN3CCC(Oc4cccc(Cc5ccc(Cl)cc5)n4)CC3)n(C[C@@H]3CCO3)c2n1 [Compound 124a, (S)-2-((4-((6-(4-chlorobenzyl)pyridin-2-yl)oxy)piperidin-1-yl)methyl)-3-(oxetan-2-ylmethyl)-3H-imidazo[4,5-b]pyridine-5-carboxylic acid] |
| 1.7 | O=C(O)c1ccc2nc(CN3CCC(c4cccc5cn(Cc6ccc(Cl)cc6F)nc45)CC3)n(C[C@@H]3CCO3)c2n1 [Compound 142a, (S)-2-((4-(2-(4-chloro-2-fluorobenzyl)-2H-indazol-7-yl)piperidin-1-yl)methyl)-3-(oxetan-2-ylmethyl)-3H-imidazo[4,5-b]pyridine-5-carboxylic acid] |
| 0.18 | O=C(O)c1cnc2nc(CN3CCC(Oc4ccnc(Cc5ccc(Cl)cc5F)n4)CC3)n(C[C@@H]3CCO3)c2c1 [Compound 161a, 2-{[4-({2-[(4-chloro-2-fluorophenyl)methyl]pyrimidin-4-yl}oxy)piperidin-1-yl]methyl}-1-{[(2S)-oxetan-2-yl]methyl}-1H-imidazo[4,5-b]pyridine-6-carboxylic acid] |
| 0.075 | N#CC1(Cn2c(CN3CCC(Oc4ccnc(Cc5ccc(Cl)cc5F)n4)CC3)nc3ccc(C(=O)O)cc32)CC1 [Compound 162, 2-{[4-({2-[(4-chloro-2-fluorophenyl)methyl]pyrimidin-4-yl}oxy)piperidin-1-yl]methyl}-1-[(1-cyanocyclopropyl)methyl]-1H-1,3-benzodiazole-6-carboxylic acid] |
| 0.11 | O=C(O)c1ccc2nc(CN3CCC(Oc4ccnc(Cc5ccc(Cl)cc5Cl)n4)CC3)n(C[C@@H]3CCO3)c2n1 [Compound 164a, 2-{[4-({2-[(2,4-dichlorophenyl)methyl]pyrimidin-4-yl}oxy)piperidin-1-yl]methyl}-3-{[(2S)-oxetan-2-yl]methyl}-3H-imidazo[4,5-b]pyridine-5-carboxylic acid] |

same assay, conditions: HEK293/CRE-Luc cell line stably expressing the GLP-1 Receptor; 30 min incubation at 37° C.; read-out: GLP1R cAMP Stimulation DR: pEC50 (converted)

| EC50 [nM] | Structure (SMILES) |
| --- | --- |
| 0.1 | O=C(O)c1ccc2nc(CN3CCC(Oc4ccnc(Cc5ccc(Cl)cc5Cl)n4)CC3)n(C[C@@H]3CCO3)c2n1 [Compound 164a, 2-{[4-({2-[(2,4-dichlorophenyl)methyl]pyrimidin-4-yl}oxy)piperidin-1-yl]methyl}-3-{[(2S)-oxetan-2-yl]methyl}-3H-imidazo[4,5-b]pyridine-5-carboxylic acid] |
